Source: the NIST ThermoML archive (doi:10.1021/je060271a)
Numbers after ± are expanded uncertainties.

Conditions: Liquid, Vibrating tube method

CCCC(=O)OCC(COC(=O)CCC)(COC(=O)CCC)COC(=O)CCC [pentaerythritol tetrabutyrate]
mass density (283.15 K, 30442 kPa): 1076 ± 1.3 kg/m3
mass density (283.15 K, 30478 kPa): 1076.1 ± 1.3 kg/m3
mass density (283.15 K, 30509 kPa): 1076 ± 1.3 kg/m3
mass density (283.15 K, 30540 kPa): 1076.1 ± 1.3 kg/m3
mass density (283.15 K, 30577 kPa): 1076.1 ± 1.3 kg/m3
mass density (283.15 K, 30608 kPa): 1076.1 ± 1.3 kg/m3
mass density (283.15 K, 30639 kPa): 1076.1 ± 1.3 kg/m3
mass density (283.15 K, 30670 kPa): 1076.1 ± 1.3 kg/m3
mass density (283.15 K, 30707 kPa): 1076.1 ± 1.3 kg/m3
mass density (283.15 K, 30738 kPa): 1076.1 ± 1.3 kg/m3
mass density (283.15 K, 30775 kPa): 1076.2 ± 1.3 kg/m3
mass density (283.15 K, 30806 kPa): 1076.3 ± 1.3 kg/m3
mass density (283.15 K, 30838 kPa): 1076.2 ± 1.3 kg/m3
mass density (283.15 K, 30875 kPa): 1076.1 ± 1.3 kg/m3
mass density (283.15 K, 30906 kPa): 1076.2 ± 1.3 kg/m3
mass density (283.15 K, 30938 kPa): 1076.3 ± 1.3 kg/m3
mass density (283.15 K, 30975 kPa): 1076.3 ± 1.3 kg/m3
mass density (283.15 K, 31008 kPa): 1076.3 ± 1.3 kg/m3
mass density (283.15 K, 31040 kPa): 1076.3 ± 1.3 kg/m3
mass density (283.15 K, 31071 kPa): 1076.3 ± 1.3 kg/m3
mass density (283.15 K, 31110 kPa): 1076.4 ± 1.3 kg/m3
mass density (283.15 K, 31141 kPa): 1076.4 ± 1.3 kg/m3
mass density (283.15 K, 31179 kPa): 1076.4 ± 1.3 kg/m3
mass density (283.15 K, 31211 kPa): 1076.3 ± 1.3 kg/m3
mass density (283.15 K, 31243 kPa): 1076.4 ± 1.3 kg/m3
mass density (283.15 K, 31282 kPa): 1076.4 ± 1.3 kg/m3
mass density (283.15 K, 31314 kPa): 1076.4 ± 1.3 kg/m3
mass density (283.15 K, 31346 kPa): 1076.4 ± 1.3 kg/m3
mass density (283.15 K, 31385 kPa): 1076.5 ± 1.3 kg/m3
mass density (283.15 K, 31418 kPa): 1076.6 ± 1.3 kg/m3
mass density (283.15 K, 31450 kPa): 1076.4 ± 1.3 kg/m3
mass density (283.15 K, 31490 kPa): 1076.5 ± 1.3 kg/m3
mass density (283.15 K, 31523 kPa): 1076.5 ± 1.3 kg/m3
mass density (283.15 K, 31556 kPa): 1076.5 ± 1.3 kg/m3
mass density (283.15 K, 31595 kPa): 1076.5 ± 1.3 kg/m3
mass density (283.15 K, 31628 kPa): 1076.7 ± 1.3 kg/m3
mass density (283.15 K, 31662 kPa): 1076.7 ± 1.3 kg/m3
mass density (283.15 K, 31695 kPa): 1076.6 ± 1.3 kg/m3
mass density (283.15 K, 31735 kPa): 1076.6 ± 1.3 kg/m3
mass density (283.15 K, 31768 kPa): 1076.7 ± 1.3 kg/m3
mass density (283.15 K, 31807 kPa): 1076.7 ± 1.3 kg/m3
mass density (283.15 K, 31841 kPa): 1076.9 ± 1.3 kg/m3
mass density (283.15 K, 31875 kPa): 1076.7 ± 1.3 kg/m3
mass density (283.15 K, 31909 kPa): 1076.8 ± 1.3 kg/m3
mass density (283.15 K, 31949 kPa): 1076.8 ± 1.3 kg/m3
mass density (283.15 K, 31983 kPa): 1076.9 ± 1.3 kg/m3
mass density (283.15 K, 32023 kPa): 1076.9 ± 1.3 kg/m3
mass density (283.15 K, 32057 kPa): 1076.8 ± 1.3 kg/m3
mass density (283.15 K, 32092 kPa): 1076.8 ± 1.3 kg/m3
mass density (283.15 K, 32133 kPa): 1076.8 ± 1.3 kg/m3
mass density (283.15 K, 32167 kPa): 1076.9 ± 1.3 kg/m3
mass density (283.15 K, 32202 kPa): 1076.9 ± 1.3 kg/m3
mass density (283.15 K, 32236 kPa): 1076.9 ± 1.3 kg/m3
mass density (283.15 K, 32278 kPa): 1077 ± 1.3 kg/m3
mass density (283.15 K, 32312 kPa): 1076.9 ± 1.3 kg/m3
mass density (283.15 K, 32347 kPa): 1077 ± 1.3 kg/m3
mass density (283.15 K, 32390 kPa): 1077 ± 1.3 kg/m3
mass density (283.15 K, 32417 kPa): 1077.1 ± 1.3 kg/m3
mass density (283.15 K, 32453 kPa): 1077.1 ± 1.3 kg/m3
mass density (283.15 K, 32494 kPa): 1077.2 ± 1.3 kg/m3
mass density (283.15 K, 32536 kPa): 1077.1 ± 1.3 kg/m3
mass density (283.15 K, 32572 kPa): 1077.1 ± 1.3 kg/m3
mass density (283.15 K, 32614 kPa): 1077.1 ± 1.3 kg/m3
mass density (283.15 K, 32650 kPa): 1077 ± 1.3 kg/m3
mass density (283.15 K, 32692 kPa): 1077.2 ± 1.3 kg/m3
mass density (283.15 K, 32728 kPa): 1077.1 ± 1.3 kg/m3
mass density (283.15 K, 32764 kPa): 1077.2 ± 1.3 kg/m3
mass density (283.15 K, 32806 kPa): 1077.1 ± 1.3 kg/m3
mass density (283.15 K, 32845 kPa): 1077.2 ± 1.3 kg/m3
mass density (283.15 K, 32881 kPa): 1077.2 ± 1.3 kg/m3
mass density (283.15 K, 32918 kPa): 1077.2 ± 1.3 kg/m3
mass density (283.15 K, 32954 kPa): 1077.3 ± 1.3 kg/m3
mass density (283.15 K, 32998 kPa): 1077.3 ± 1.3 kg/m3
mass density (283.15 K, 33034 kPa): 1077.2 ± 1.3 kg/m3
mass density (283.15 K, 33071 kPa): 1077.4 ± 1.3 kg/m3
mass density (283.15 K, 33114 kPa): 1077.3 ± 1.4 kg/m3
mass density (283.15 K, 33151 kPa): 1077.4 ± 1.4 kg/m3
mass density (283.15 K, 33188 kPa): 1077.3 ± 1.3 kg/m3
mass density (283.15 K, 33232 kPa): 1077.5 ± 1.4 kg/m3
mass density (283.15 K, 33270 kPa): 1077.5 ± 1.4 kg/m3
mass density (283.15 K, 33308 kPa): 1077.4 ± 1.4 kg/m3
mass density (283.15 K, 33355 kPa): 1077.6 ± 1.4 kg/m3
mass density (283.15 K, 33391 kPa): 1077.5 ± 1.4 kg/m3
mass density (283.15 K, 33429 kPa): 1077.5 ± 1.4 kg/m3
mass density (283.15 K, 33473 kPa): 1077.6 ± 1.4 kg/m3
mass density (283.15 K, 33511 kPa): 1077.5 ± 1.4 kg/m3
mass density (283.15 K, 33548 kPa): 1077.5 ± 1.4 kg/m3
mass density (283.15 K, 33586 kPa): 1077.6 ± 1.4 kg/m3
mass density (283.15 K, 33631 kPa): 1077.7 ± 1.4 kg/m3
mass density (283.15 K, 33670 kPa): 1077.7 ± 1.4 kg/m3
mass density (283.15 K, 33708 kPa): 1077.7 ± 1.4 kg/m3
mass density (283.15 K, 33754 kPa): 1077.7 ± 1.4 kg/m3
mass density (283.15 K, 33792 kPa): 1077.6 ± 1.4 kg/m3
mass density (283.15 K, 33838 kPa): 1077.7 ± 1.4 kg/m3
mass density (283.15 K, 33878 kPa): 1077.8 ± 1.4 kg/m3
mass density (283.15 K, 33917 kPa): 1077.8 ± 1.4 kg/m3
mass density (283.15 K, 34179 kPa): 1077.9 ± 1.4 kg/m3
mass density (283.15 K, 34232 kPa): 1078 ± 1.4 kg/m3
mass density (283.15 K, 34278 kPa): 1078 ± 1.4 kg/m3
mass density (283.15 K, 34325 kPa): 1078 ± 1.4 kg/m3
mass density (283.15 K, 34380 kPa): 1078.1 ± 1.4 kg/m3
mass density (283.15 K, 34408 kPa): 1078.1 ± 1.4 kg/m3
mass density (283.15 K, 34413 kPa): 1078.1 ± 1.4 kg/m3
mass density (283.15 K, 34443 kPa): 1078.1 ± 1.4 kg/m3
mass density (283.15 K, 34447 kPa): 1078.3 ± 1.4 kg/m3
mass density (283.15 K, 34450 kPa): 1078 ± 1.4 kg/m3
mass density (283.15 K, 34451 kPa): 1078 ± 1.4 kg/m3
mass density (283.15 K, 34455 kPa): 1078.1 ± 1.4 kg/m3
mass density (283.15 K, 34530 kPa): 1078.2 ± 1.4 kg/m3
mass density (283.15 K, 34544 kPa): 1078.1 ± 1.4 kg/m3
mass density (283.15 K, 34545 kPa): 1078.1 ± 1.4 kg/m3
mass density (283.16 K, 104.2 kPa): 1059 ± 1.3 kg/m3
mass density (283.16 K, 104.7 kPa): 1059.1 ± 1.3 kg/m3
mass density (283.16 K, 105.7 kPa): 1059 ± 1.3 kg/m3
mass density (283.16 K, 107.3 kPa): 1059 ± 1.3 kg/m3
mass density (283.16 K, 108.9 kPa): 1059.1 ± 1.3 kg/m3
mass density (283.16 K, 113.9 kPa): 1059 ± 1.3 kg/m3
mass density (283.16 K, 119.6 kPa): 1059.1 ± 1.3 kg/m3
mass density (283.16 K, 129.7 kPa): 1059 ± 1.3 kg/m3
mass density (283.16 K, 145 kPa): 1059.2 ± 1.3 kg/m3
mass density (283.16 K, 173.9 kPa): 1059.1 ± 1.3 kg/m3
mass density (283.16 K, 201.7 kPa): 1059.2 ± 1.3 kg/m3
mass density (283.16 K, 220.1 kPa): 1059.2 ± 1.3 kg/m3
mass density (283.16 K, 241.7 kPa): 1059.2 ± 1.3 kg/m3
mass density (283.16 K, 261.3 kPa): 1059.2 ± 1.3 kg/m3
mass density (283.16 K, 284.4 kPa): 1059.2 ± 1.3 kg/m3
mass density (283.16 K, 305.4 kPa): 1059.2 ± 1.3 kg/m3
mass density (283.16 K, 329.3 kPa): 1059.3 ± 1.3 kg/m3
mass density (283.16 K, 363.7 kPa): 1059.2 ± 1.3 kg/m3
mass density (283.16 K, 391.3 kPa): 1059.1 ± 1.9 kg/m3
mass density (283.16 K, 432.3 kPa): 1059.2 ± 1.3 kg/m3
mass density (283.16 K, 466.5 kPa): 1059.2 ± 1.3 kg/m3
mass density (283.16 K, 498.2 kPa): 1059.2 ± 1.3 kg/m3
mass density (283.16 K, 527.5 kPa): 1059.2 ± 1.3 kg/m3
mass density (283.16 K, 550.1 kPa): 1059.3 ± 1.3 kg/m3
mass density (283.16 K, 577.4 kPa): 1059.3 ± 1.3 kg/m3
mass density (283.16 K, 602.2 kPa): 1059.4 ± 1.3 kg/m3
mass density (283.16 K, 628.6 kPa): 1059.3 ± 1.3 kg/m3
mass density (283.16 K, 657.3 kPa): 1059.4 ± 1.3 kg/m3
mass density (283.16 K, 694.8 kPa): 1059.2 ± 1.3 kg/m3
mass density (283.16 K, 725.1 kPa): 1059.3 ± 1.3 kg/m3
mass density (283.16 K, 756.3 kPa): 1059.4 ± 1.3 kg/m3
mass density (283.16 K, 786.4 kPa): 1059.4 ± 1.3 kg/m3
mass density (283.16 K, 816.8 kPa): 1059.4 ± 1.3 kg/m3
mass density (283.16 K, 854 kPa): 1059.4 ± 1.3 kg/m3
mass density (283.16 K, 886.5 kPa): 1059.4 ± 1.3 kg/m3
mass density (283.16 K, 919.6 kPa): 1059.5 ± 1.3 kg/m3
